Test in all cases: biochemical
Holding throughout (type): binding

The target in experiment [1] is T1, panel of 442 kinases (Homo sapiens, UniProt O00238).
T1 construct: purchased Ambit Biosciences (scanMAXX KINOMEscan)
The conditions noted are these: BMPR1B; for remaining activity at 1 µM: read-out: % of control at 1 µM.

Experiment [2] addresses T2, panel of 442 kinases (Homo sapiens, UniProt P10721, V559D/V654A).
T2 construct: purchased Ambit Biosciences (scanMAXX KINOMEscan)
The conditions noted are these: kinase KIT(V559D,V654A); for remaining activity at 1 µM: read-out: % of control at 1 µM.

Experiment [3] deals with T3, panel of 442 kinases (Homo sapiens, UniProt P17612).
T3 construct: purchased Ambit Biosciences (scanMAXX KINOMEscan)
The conditions noted are these: kinase PKAC-alpha; for remaining activity at 1 µM: read-out: % of control at 1 µM.

Experiment [4] has as its target T4, panel of 442 kinases (Homo sapiens, UniProt P54760).
T4 construct: purchased Ambit Biosciences (scanMAXX KINOMEscan)
T4 sequence (P54760 16-987): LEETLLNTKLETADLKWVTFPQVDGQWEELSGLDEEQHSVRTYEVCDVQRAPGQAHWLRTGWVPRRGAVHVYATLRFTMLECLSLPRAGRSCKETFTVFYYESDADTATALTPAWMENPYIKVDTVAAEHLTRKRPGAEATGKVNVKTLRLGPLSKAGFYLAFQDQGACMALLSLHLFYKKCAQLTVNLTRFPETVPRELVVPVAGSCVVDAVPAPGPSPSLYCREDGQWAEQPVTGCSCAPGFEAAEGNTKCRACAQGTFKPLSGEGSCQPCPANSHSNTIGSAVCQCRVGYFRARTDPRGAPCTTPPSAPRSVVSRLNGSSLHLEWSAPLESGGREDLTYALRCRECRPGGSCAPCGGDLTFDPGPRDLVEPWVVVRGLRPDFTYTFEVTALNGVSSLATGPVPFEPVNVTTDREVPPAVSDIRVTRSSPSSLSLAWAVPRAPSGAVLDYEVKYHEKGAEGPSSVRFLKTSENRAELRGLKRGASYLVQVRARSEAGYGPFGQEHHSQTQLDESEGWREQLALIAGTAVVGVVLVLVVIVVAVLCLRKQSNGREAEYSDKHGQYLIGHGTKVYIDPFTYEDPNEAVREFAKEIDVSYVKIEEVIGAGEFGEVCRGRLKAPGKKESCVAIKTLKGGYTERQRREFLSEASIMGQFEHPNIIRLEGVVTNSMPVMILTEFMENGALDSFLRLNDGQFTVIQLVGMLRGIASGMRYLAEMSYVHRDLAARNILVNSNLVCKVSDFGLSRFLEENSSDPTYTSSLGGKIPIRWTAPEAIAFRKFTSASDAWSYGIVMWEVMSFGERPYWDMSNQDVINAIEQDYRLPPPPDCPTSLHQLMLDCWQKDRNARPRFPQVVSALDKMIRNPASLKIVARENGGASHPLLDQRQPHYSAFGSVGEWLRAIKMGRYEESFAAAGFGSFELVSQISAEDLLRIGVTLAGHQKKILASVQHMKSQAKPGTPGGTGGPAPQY
The conditions noted are these: EPHB4; for remaining activity at 1 µM: read-out: % of control at 1 µM.

Experiment [5] concerns the target T5, panel of 442 kinases (Homo sapiens, UniProt Q14004).
T5 construct: purchased Ambit Biosciences (scanMAXX KINOMEscan)
The conditions noted are these: for remaining activity at 1 µM: read-out: % of control at 1 µM; for remaining activity at 10 µM: read-out: % of control at 10 µM.

Experiment [6] has as its target T6, panel of 442 kinases (Homo sapiens, UniProt Q86Z02).
T6 construct: purchased Ambit Biosciences (scanMAXX KINOMEscan)
The conditions noted are these: kinase HIPK1; for remaining activity at 1 µM: read-out: % of control at 1 µM.

Experiment [7] deals with T7, panel of 442 kinases (Homo sapiens, UniProt Q8WTQ7).
T7 construct: purchased Ambit Biosciences (scanMAXX KINOMEscan)
T7 sequence (Q8WTQ7 1-553): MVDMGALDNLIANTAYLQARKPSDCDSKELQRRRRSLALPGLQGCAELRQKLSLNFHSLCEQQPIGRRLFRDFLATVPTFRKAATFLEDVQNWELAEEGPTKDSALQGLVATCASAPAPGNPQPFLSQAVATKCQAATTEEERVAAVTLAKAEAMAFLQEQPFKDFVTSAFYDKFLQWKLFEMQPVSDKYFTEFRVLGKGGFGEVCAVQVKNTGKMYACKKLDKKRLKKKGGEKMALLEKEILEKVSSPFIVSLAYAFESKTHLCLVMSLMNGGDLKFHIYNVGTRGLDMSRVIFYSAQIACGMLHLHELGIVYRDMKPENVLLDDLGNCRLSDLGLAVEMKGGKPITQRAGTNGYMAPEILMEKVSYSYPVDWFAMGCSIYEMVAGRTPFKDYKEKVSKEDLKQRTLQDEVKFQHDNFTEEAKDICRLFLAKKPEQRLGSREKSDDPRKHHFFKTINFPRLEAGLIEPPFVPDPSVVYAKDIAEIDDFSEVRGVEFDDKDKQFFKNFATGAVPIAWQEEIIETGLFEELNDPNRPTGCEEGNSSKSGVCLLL
The conditions noted are these: kinase GRK7; for remaining activity at 1 µM: read-out: % of control at 1 µM.

In experiment [8] the target is T8, panel of 442 kinases (Homo sapiens, UniProt Q9BVS4).
T8 construct: purchased Ambit Biosciences (scanMAXX KINOMEscan)
The conditions noted are these: kinase RIOK2; for remaining activity at 1 µM: read-out: RIOK2 (% of control at 1 µM).

The target in experiment [9] is T9, panel of 442 kinases (Homo sapiens, UniProt Q9Y6R4).
T9 construct: purchased Ambit Biosciences (scanMAXX KINOMEscan)
The conditions noted are these: kinase MAP3K4; for remaining activity at 1 µM: read-out: % of control at 1 µM.

The mark [10] stands for this setting: 10 µM, read-out: % of control at 10 µM.

In article PMC5564600 (Oncotarget, 2017) one finds remaining activity data, which are given here for five molecules.

Where two headings read alike, the source gives them in different places.

T8 sequence (Q9BVS4 whole entry): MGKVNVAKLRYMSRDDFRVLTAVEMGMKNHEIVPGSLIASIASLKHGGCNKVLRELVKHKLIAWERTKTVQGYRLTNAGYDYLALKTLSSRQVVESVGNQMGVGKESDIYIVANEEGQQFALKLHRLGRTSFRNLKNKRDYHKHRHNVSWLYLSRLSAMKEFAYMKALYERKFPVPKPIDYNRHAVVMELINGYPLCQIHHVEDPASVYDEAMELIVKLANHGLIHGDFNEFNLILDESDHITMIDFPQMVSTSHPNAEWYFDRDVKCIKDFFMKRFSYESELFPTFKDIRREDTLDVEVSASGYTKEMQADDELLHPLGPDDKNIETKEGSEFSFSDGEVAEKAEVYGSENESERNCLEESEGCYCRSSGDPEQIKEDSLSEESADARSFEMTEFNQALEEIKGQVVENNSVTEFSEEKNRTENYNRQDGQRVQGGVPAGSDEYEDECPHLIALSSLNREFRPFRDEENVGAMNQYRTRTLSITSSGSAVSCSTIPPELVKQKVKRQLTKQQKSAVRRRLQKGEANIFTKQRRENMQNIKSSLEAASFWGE
T1 sequence (O00238 14-502): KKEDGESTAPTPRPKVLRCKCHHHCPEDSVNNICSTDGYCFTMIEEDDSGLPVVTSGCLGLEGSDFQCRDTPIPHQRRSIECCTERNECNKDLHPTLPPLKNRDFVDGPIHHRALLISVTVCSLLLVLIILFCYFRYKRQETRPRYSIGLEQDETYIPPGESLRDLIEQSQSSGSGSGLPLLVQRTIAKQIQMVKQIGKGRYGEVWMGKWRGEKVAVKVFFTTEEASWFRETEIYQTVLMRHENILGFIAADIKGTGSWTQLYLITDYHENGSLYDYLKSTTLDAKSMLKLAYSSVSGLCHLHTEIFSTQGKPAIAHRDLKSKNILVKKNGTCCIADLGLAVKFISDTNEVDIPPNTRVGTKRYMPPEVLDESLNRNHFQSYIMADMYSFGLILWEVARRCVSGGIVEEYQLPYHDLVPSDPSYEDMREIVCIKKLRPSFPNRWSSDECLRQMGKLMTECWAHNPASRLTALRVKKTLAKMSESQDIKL
T9 sequence (Q9Y6R4 whole entry): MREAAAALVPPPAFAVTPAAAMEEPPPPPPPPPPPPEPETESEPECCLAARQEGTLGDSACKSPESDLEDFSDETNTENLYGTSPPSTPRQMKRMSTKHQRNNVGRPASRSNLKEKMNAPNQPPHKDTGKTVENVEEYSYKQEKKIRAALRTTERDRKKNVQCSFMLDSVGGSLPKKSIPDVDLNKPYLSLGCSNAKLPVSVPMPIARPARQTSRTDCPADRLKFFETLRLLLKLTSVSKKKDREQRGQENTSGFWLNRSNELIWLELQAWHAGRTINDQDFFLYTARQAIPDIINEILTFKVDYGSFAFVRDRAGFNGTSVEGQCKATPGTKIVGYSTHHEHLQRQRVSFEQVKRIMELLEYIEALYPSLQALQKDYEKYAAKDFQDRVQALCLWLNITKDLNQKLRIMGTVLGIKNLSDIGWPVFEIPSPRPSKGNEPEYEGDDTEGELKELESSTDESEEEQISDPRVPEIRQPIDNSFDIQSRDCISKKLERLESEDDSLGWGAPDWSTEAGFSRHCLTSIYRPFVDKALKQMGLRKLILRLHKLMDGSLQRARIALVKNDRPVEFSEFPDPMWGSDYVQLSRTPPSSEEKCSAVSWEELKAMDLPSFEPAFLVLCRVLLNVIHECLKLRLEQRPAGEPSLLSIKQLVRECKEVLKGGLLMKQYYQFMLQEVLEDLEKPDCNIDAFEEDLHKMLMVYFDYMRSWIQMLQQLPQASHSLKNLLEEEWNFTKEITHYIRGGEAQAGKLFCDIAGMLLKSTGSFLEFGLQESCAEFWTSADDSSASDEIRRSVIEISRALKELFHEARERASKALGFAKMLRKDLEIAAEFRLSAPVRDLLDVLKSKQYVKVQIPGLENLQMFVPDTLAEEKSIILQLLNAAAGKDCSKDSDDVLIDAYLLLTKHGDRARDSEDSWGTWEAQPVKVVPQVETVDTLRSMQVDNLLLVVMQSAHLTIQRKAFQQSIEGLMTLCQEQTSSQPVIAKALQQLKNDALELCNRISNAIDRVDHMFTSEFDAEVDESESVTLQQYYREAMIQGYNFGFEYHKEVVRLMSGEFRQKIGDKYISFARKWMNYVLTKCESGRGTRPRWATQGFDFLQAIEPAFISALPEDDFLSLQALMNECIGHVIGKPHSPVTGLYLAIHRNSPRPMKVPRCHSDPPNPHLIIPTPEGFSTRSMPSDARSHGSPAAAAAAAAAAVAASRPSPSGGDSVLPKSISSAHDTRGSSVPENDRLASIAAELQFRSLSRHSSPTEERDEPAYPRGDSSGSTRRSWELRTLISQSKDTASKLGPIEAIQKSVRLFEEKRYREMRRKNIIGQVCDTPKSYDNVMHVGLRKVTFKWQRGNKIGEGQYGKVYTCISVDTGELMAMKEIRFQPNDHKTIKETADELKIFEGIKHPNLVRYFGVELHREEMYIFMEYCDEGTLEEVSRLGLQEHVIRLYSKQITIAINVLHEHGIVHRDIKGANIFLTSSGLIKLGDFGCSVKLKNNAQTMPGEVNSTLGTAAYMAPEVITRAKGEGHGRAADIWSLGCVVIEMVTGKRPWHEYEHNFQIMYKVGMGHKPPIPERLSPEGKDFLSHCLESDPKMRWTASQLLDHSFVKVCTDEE
T5 sequence (Q14004 whole entry): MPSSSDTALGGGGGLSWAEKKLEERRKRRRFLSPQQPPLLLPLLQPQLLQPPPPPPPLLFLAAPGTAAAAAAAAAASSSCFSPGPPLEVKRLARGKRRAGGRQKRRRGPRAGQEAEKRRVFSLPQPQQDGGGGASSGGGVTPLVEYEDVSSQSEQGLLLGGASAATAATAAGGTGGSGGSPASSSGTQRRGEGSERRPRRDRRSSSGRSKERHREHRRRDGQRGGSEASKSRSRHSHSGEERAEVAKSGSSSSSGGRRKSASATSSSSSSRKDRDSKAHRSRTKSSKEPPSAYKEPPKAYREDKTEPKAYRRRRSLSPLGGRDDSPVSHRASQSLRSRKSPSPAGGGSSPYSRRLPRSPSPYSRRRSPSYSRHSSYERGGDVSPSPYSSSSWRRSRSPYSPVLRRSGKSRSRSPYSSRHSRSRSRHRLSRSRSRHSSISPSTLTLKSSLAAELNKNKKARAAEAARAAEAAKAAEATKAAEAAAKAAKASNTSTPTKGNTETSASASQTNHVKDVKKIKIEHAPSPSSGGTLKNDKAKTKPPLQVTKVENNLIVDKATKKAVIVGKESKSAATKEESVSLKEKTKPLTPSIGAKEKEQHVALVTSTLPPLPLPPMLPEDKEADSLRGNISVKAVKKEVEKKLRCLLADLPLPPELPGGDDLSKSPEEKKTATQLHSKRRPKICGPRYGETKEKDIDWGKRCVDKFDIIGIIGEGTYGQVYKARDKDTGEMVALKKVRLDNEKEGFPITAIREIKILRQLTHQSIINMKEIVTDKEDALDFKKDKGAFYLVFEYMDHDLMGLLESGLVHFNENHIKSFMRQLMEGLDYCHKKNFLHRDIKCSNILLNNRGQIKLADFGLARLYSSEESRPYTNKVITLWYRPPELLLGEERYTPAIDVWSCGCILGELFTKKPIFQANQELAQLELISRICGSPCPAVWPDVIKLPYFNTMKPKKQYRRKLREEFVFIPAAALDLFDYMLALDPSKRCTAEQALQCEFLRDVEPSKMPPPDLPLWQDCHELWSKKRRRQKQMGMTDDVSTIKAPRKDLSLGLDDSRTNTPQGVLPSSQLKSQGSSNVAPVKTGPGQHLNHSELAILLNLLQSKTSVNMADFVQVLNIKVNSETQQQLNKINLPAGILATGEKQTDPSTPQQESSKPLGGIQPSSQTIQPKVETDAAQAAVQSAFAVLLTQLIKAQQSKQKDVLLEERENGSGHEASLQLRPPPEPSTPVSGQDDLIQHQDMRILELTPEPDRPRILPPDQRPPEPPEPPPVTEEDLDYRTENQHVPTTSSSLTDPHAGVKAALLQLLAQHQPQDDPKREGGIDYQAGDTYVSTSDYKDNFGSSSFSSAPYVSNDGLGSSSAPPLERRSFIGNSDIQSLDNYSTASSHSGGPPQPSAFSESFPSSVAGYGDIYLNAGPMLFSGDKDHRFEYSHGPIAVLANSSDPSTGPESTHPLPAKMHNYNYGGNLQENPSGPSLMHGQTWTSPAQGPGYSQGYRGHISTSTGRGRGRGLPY
T2 sequence (P10721 26-976 V559D/V654A): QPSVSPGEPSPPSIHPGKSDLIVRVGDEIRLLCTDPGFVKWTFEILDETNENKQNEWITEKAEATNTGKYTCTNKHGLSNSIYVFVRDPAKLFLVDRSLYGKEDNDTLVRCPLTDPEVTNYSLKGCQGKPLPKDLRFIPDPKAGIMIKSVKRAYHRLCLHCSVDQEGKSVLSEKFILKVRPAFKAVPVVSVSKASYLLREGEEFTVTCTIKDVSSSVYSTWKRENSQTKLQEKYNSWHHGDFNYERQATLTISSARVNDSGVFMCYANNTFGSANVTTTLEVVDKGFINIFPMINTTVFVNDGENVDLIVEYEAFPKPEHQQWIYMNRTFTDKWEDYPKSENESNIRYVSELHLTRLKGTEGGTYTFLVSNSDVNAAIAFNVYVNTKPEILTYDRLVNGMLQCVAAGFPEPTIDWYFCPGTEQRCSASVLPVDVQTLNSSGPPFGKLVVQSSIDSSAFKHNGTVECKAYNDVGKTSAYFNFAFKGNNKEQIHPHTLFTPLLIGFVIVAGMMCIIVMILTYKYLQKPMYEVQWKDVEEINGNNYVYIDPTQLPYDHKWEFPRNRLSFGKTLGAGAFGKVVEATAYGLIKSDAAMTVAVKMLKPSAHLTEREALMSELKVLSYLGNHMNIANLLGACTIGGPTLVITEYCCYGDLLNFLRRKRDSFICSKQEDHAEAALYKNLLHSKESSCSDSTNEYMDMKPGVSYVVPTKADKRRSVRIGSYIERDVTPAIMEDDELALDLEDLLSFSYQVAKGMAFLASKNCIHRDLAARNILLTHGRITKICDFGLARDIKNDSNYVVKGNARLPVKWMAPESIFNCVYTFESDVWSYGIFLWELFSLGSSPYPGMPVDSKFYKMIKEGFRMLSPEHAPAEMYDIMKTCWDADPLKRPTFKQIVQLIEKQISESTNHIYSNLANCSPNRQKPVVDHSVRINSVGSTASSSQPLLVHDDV

On to `Nc1cc(C(F)(F)F)c(-c2cc(N3CCOCC3)nc(N3CCOCC3)n2)cn1` [Buparlisib], for which the remaining activity at 1 µM amounted to 100% at panel of 442 kinases [1]; 100% on panel of 442 kinases [2]; 86% at panel of 442 kinases [3]; 100% at panel of 442 kinases [4]; 75% at panel of 442 kinases [5] (CDC2L5, 1 µM); 100% on panel of 442 kinases [6]. In addition, the remaining activity at 1 µM was determined as 77% at panel of 442 kinases [7], 100% at panel of 442 kinases [8] and 92% at panel of 442 kinases [9]. Also, the remaining activity at 10 µM on panel of 442 kinases [1] (setting [10]) worked out at 100%; on panel of 442 kinases [2] (setting [10]), 98%; on panel of 442 kinases [3] (setting [10]), 100%; on panel of 442 kinases [4] (setting [10]), 100%; on panel of 442 kinases [5] (CDC2L5), 100%; on panel of 442 kinases [6] (setting [10]) it was 89%. The remaining activity at 10 µM at panel of 442 kinases [7] (setting [10]) stood at 100%; at panel of 442 kinases [8] (10 µM, read-out: RIOK2 (% of control at 10 µM)), 100%; on panel of 442 kinases [9] (setting [10]), 100%.
For `Cn1c(=O)n(-c2ccc(C(C)(C)C#N)cc2)c2c3cc(-c4cnc5ccccc5c4)ccc3ncc21` [Dactolisib, 2-methyl-2-[4-(3-methyl-2-oxo-8-quinolin-3-yl-2,3-dihydroimidazo[4,5-c]quinolin-1-yl)-phenyl] propionitrile], the remaining activity at 1 µM on panel of 442 kinases [1] came to 91%; at panel of 442 kinases [2], 84%; at panel of 442 kinases [3] it was 100%; on panel of 442 kinases [4], 97%; on panel of 442 kinases [5] (CDC2L5, 1 µM), 87%; at panel of 442 kinases [6], 72%. Also, the remaining activity at 1 µM on panel of 442 kinases [7] was determined as 92%; at panel of 442 kinases [8], 65%; on panel of 442 kinases [9] it was 96%.
With `COc1ncc(-c2ccc3nccc(-c4ccnnc4)c3c2)cc1NS(=O)(=O)c1ccc(F)cc1F` [Omipalisib], the remaining activity at 1 µM on panel of 442 kinases [1] is 87%; at panel of 442 kinases [2] it was 100%; on panel of 442 kinases [3] it was 84%; at panel of 442 kinases [4] it was 100%; on panel of 442 kinases [5] (CDC2L5, 1 µM), 100%; on panel of 442 kinases [6] it was 99%. For the same molecule, the remaining activity at 1 µM on panel of 442 kinases [7], on panel of 442 kinases [8] and at panel of 442 kinases [9] was 100% throughout.
Consider `CS(=O)(=O)N1CCN(Cc2cc3nc(-c4cccc5[nH]ncc45)nc(N4CCOCC4)c3s2)CC1` [Pictilisib, 2-(1H-indazol-4-yl)-6-(4-methanesulfonyl-piperazin-1-ylmethyl)-4-morpholin-4-yl-t hieno[3,2-d]pyrimidine], for which the remaining activity at 1 µM at panel of 442 kinases [5] (CDC2L5, 1 µM) worked out at 70%. The remaining activity at 10 µM at panel of 442 kinases [5] (CDC2L5) was 100%.
`FC(F)c1nc2ccccc2n1-c1nc(N2CCOCC2)nc(N2CCOCC2)n1` [ZSTK474, 2-(difluoromethyl)-1-[4,6-di(4-morpholinyl)-1,3,5-triazin-2-yl]-1H-benzimidazole]: the remaining activity at 1 µM was 94% on panel of 442 kinases [1]; 95% on panel of 442 kinases [2]; 100% on panel of 442 kinases [3]; 92% on panel of 442 kinases [4]; 100% at panel of 442 kinases [5]; 86% on panel of 442 kinases [6]. Besides, the remaining activity at 1 µM at panel of 442 kinases [7] stood at 98%; on panel of 442 kinases [8], 39%; at panel of 442 kinases [9], 97%.
